The numbers were not newly measured in patent US20030108955A1, “Dioxin derivatives and method of measurement therewith” (priority 2000, published 2003), which cites them from elsewhere.

For this data set the following is noted: general knowledge.

The structures appear in SMILES notation.

Turning to `O=C(O)CCCC[C@@H]1SC[C@@H]2NC(=O)N[C@@H]21` [biotin], the water solubility entry was “insoluble to water”.
